Assays:
[1] = test system: differentiated SH-SY5Y cells; experiment: Mitochondrial membrane potential, JC-1 dye; format: cell-based, human; settings: control 100.0%
Excerpt: Mitochondrial membrane potential (ΔΨm) is a valuable parameter that reflects the energy status and functional integrity of cells, and the JC-1 dye is widely used as an indicator of ΔΨm. In healthy cells with high ΔΨm, JC-1 forms J-aggregates that emit red fluorescence. In apoptotic or unhealthy cells with low ΔΨm, JC-1 remains in its monomeric form and emits green fluorescence. The ratio of red to green fluorescence intensity is proportional to the degree of polarization of the mitochondrial membrane (a higher ratio indicates a more polarized membrane).
Thus, the SH-SY5Y cells were seeded onto 24-well plates (25,000 cells/cm^2) following the previously described seeding and differentiation protocol. On the day of the experiment, the cells were exposed to different concentrations of the tested drugs (EC20 and EC50) for 24 h (37 °C, 5% CO2). CCCP (100 µM, 2 h) was used as a positive control for mitochondrial membrane depolarization. At the end of the incubation period, the medium was removed, and the cells were incubated, for 30 min, with 10 µM JC-1 under light protection (37 °C, 5% CO2). Subsequently, the plates were centrifuged (5 min, 300× g, room temperature), the supernatants were rejected, and the cells were washed 2 times with warm HBSS with calcium and magnesium. Fluorescence was recorded at the wavelengths of 485 nm excitation and 535 nm emission for JC-1 monomers and 535 nm excitation and 595 nm emission wavelengths for J-aggregates in a multi-well plate reader (PowerWaveX, BioTek Instruments, Winooski, VT, USA). The results are presented as the percentage of JC-1 red/green fluorescence ratio relative to the control cells, and a minimum of 5 independent experiments were conducted in triplicate.

[2] = test system: differentiated SH-SY5Y cells; experiment: Intracellular ATP levels, luciferin-luciferase bioluminescence; format: cell-based, human
Procedure: Adenosine triphosphate (ATP) is often considered the primary energy currency of cells, being essential for several cellular activities, such as active transport, metabolism, and cell signaling, among many others. The intracellular ATP levels were measured using a bioluminescence method, consisting of the reaction between luciferin and ATP in the presence of luciferase, where the resulting light intensity is directly proportional to the amount of ATP present in the cells.
Thus, the SH-SY5Y cells were seeded onto 6-well plates (25,000 cells/cm^2) following the previously described seeding and differentiation protocol. On the day of the experiment, the cells were exposed to different concentrations of the tested drugs (EC20 and EC50) for 24 h (37 °C, 5% CO2). At the end of the incubation period, the cells were centrifuged (5 min, 250× g, 4 °C), the supernatants were rejected, and proteins were precipitated with 5% HClO4 for at least 30 min (4 °C). Subsequently, the acidic samples were collected from the plates, centrifuged (5 min, 16,000× g, 4 °C), and the supernatants were stored until further ATP analysis (−80 °C). To assess protein content, the pellets were resuspended in 1 M NaOH, maintained at 4 °C overnight, and stored until further analysis (−20 °C). A Bio-Rad DC™ protein assay kit (Bio-Rad Laboratories, Hercules, CA, USA) was used to analyze protein content, in accordance with the manufacturer’s guidelines.
Before the ATP quantification, the acidic samples were diluted (1:5) with 5% HClO4, and the diluted samples/standards were neutralized with an ice-cold KHCO3 solution (1:1) and centrifuged (16,000× g, 5 min, 4 °C). Then, 75 µL of each sample/standard supernatant was transferred into a white 96-well plate, 75 µL of a luciferin (300 µM)-luciferase (3,000,000 U/mL) solution (10–90%, respectively) was added, and bioluminescence (560 nm, 28 °C) was immediately measured in a multi-well plate reader (PowerWaveX, BioTek Instruments, Winooski, VT, USA).
ATP levels were standardized to protein content. The results are presented as a percentage relative to the control cells (0 µM). A minimum of 6 independent experiments were conducted in duplicate.

| SMILES | mitochondrial membrane polarization (JC-1 red/green ratio), % of the control cells ([1]; drug at its EC20, 24 h) | mitochondrial membrane polarization (JC-1 red/green ratio), % of the control cells ([1]; drug at its EC50, 24 h) | decrease of intracellular ATP levels relative to control cells ([2]; drug at its EC20, 24 h) | decrease of intracellular ATP levels relative to control cells ([2]; drug at its EC50, 24 h) |
| --- | --- | --- | --- | --- |
| COc1cc(SC(C)C)c(OC)cc1CCNCc1ccccc1OC.Cl [25T4-NBOMe, 2-(4-(isopropylthio)-2,5-dimethoxyphenyl)-N-(2-methoxybenzyl)ethan-1-aminium chloride] | 83.5% | 70.5% | 14.6% | 21.8% |
| CCCSc1cc(OC)c(CCN)cc1OC.Cl [2C-T-7, 2-(2,5-dimethoxy-4-(propylthio)phenyl)ethan-1-aminium chloride] | 50.8% | 50.0% | 16.9% | 24.1% |
| COc1cc(SC(C)C)c(OC)cc1CCN.Cl [2C-T-4, 2-(4-(isopropylthio)-2,5-dimethoxyphenyl)ethan-1-aminium chloride] | 58.3% | 56.1% | 17.8% | 28.7% |
| CCSc1cc(OC)c(CCN)cc1OC.Cl [2C-T-2, 2-(4-(ethylthio)-2,5-dimethoxyphenyl)ethan-1-aminium chloride] | 58.4% | 55.2% | 18.1% | 24.8% |
| CCSc1cc(OC)c(CCNCc2ccccc2OC)cc1OC.Cl [25T2-NBOMe, 2-(4-(ethylthio)-2,5-dimethoxyphenyl)-N-(2-methoxybenzyl)ethan-1-aminium chloride] | 78.7% | 74.3% | 16.0% | 23.5% |
| CCCSc1cc(OC)c(CCNCc2ccccc2OC)cc1OC.Cl [25T7-NBOMe, 2-(2,5-dimethoxy-4-(propylthio)phenyl)-N-(2-methoxybenzyl)ethan-1-aminium chloride] | 90.8% | 76.8% | 12.0% | 21.4% |
